This passage reports IC50 results from patent publication US11530206B2, “Phenylaminopyrimidine amide autophagy inhibitors and methods of use thereof” (Deciphera Pharmaceuticals, LLC, priority 2019, dated 2022).

pIC50: −log10 of the molar value.

The test deals with ULK kinase. The test is described as follows: pATG13 levels of mutant BRAF A375 cells after treatment with ULK inhibitors in combination with trametinib (ELISA). Format: cell-based, human. To be noted: A375 malignant melanoma cells (mutant BRAF), 250 nM trametinib, overnight, pS318-ATG13. The protocol:
A375 human malignant melanoma cancer cells (20000 cells/well) were added to a 96-well tissue-culture treated plate in 100 μL of pre-warmed DMEM medium supplemented with 10% characterized fetal bovine serum (Invitrogen, Carlsbad, Calif.), 100 units/mL penicillin G, and 100 μg/mL streptomycin and allowed to grow overnight at 37° C., 5% CO2, and 95% humidity. The following day, 100 μL of media containing trametinib or DMSO as a control was added to wells. […] A dose response of a test compound (0.5 μL per well) was added. DMSO (0.5 μL) was added to control wells. The plate was briefly shaken to mix wells and then incubated at 37° C. overnight. The next day, the media was aspirated and cells were washed with Dulbecco's Phosphate Buffered Saline (Gibco). Cells were lysed using MPER lysis buffer (Pierce, Rockford, Ill.) containing Halt Phosphatase and Protease Inhibitors (Pierce, Rockford, Ill.) and Phosphatase inhibitor cocktail 2 (Sigma, St. Louis, Mo.) at 4° C. for 10 minutes with shaking.
Plate wells were washed with ELISA wash buffer. Cell lysate was added to wells and incubated at room temperature for 2 hours. Plate wells were washed with ELISA wash buffer. […] Plate wells were washed with ELISA wash buffer. […] Plate wells were washed with ELISA wash buffer. […] The reaction was stopped with 2N Sulfuric Acid. The plate was analyzed at on a plate reader measuring absorbance at 450 nm and 540 nm (background). Signal was calculated by first subtracting the background absorbance at 540 nm from the absorbance at 450 nm for each well. Next, the background corrected absorbance at 450 nm from blank wells was subtracted from test wells. Data was compared to control wells to determine % ATG13 phosphorylation. GraphPad Prism was used to calculate IC50 values.
On the technique in general: In an ELISA, binding on a coated surface is turned into a signal by an enzyme label.
`CCc1cc(N2CCNCC2)ccc1Nc1ncc(C(F)(F)F)c(NCCCN2CCCOC2=O)n1` [Example 46]: the pIC50 was 6.52 to 7.00.
As for `CN1CCN(c2ccc(Nc3ncc(Cl)c(NCCCN4CCCOCC4=O)n3)c(C3CC3)c2)CC1` [Example 55], the figure is 6.52 to 7.00; as for `CN1CCN(c2ccc(Nc3ncc(C(F)(F)F)c(NCCCN4CCCCC4=O)n3)c(C3CC3)c2)CC1` [Example 14], 7.00 to 8.00; as for `CN1CCN(c2ccc(Nc3ncc(C(F)(F)F)c(NCCCN4CCCOC4=O)n3)c(C3CC3)c2)CC1` [Example 41], 7.00 to 8.00.
As for `CCc1cc(N2CCN(C)CC2)ccc1Nc1ncc(C(F)(F)F)c(NCCCN2CCCOC2=O)n1` [Example 39], the figure is 7.00 to 8.00; as for `CN1CCN(c2ccc(Nc3ncc(C(F)(F)F)c(NCCCN4CCOCCC4=O)n3)c(C3CC3)c2)CC1` [Example 70], 7.00 to 8.00.
To `CN1CCN(c2ccc(Nc3ncc(C(F)(F)F)c(NCCCN4CCCOCC4=O)n3)c(C3CC3)c2)CC1` [Example 52] belongs 6.52 to 7.00; to `CCc1cc(N2CCN(C)CC2)c(F)cc1Nc1ncc(C(F)(F)F)c(NCCCN2CCOCCC2=O)n1` [Example 86], 7.00 to 8.00.
For `CCc1cc(N2CCNCC2)ccc1Nc1ncc(C(F)(F)F)c(NCCCN2CCOCCC2=O)n1` [Example 84], the pIC50 was 6.52 to 7.00.
As to `O=C1OCCCN1CCCNc1nc(Nc2ccc(N3CCNCC3)cc2C2CC2)ncc1C(F)(F)F` [Example 99], the pIC50 was 6.52 to 7.00.

Broadly, the pIC50 is the negative decadic logarithm of the IC50, by convention in mol/L.
